Source: patent publication US12180156B2 (priority 2020, dated 2024)
Like-named read-outs stand apart in the source and are kept apart here.

Tests used:
Vero E6 and CRFK cells = experiment: Nonspecific cytotoxic effects (CytoTox 96 assay); type: cell-based
Description: (§1) Nonspecific cytotoxic effects. […] Confluent cells grown in 96-well plates were incubated with various concentrations (1 to 100 μM) of each compound for 72 hr. Cell cytotoxicity was measured by a CytoTox 96 nonradioactive cytotoxicity assay kit (Promega, Madison, WI), and the CC50 values were calculated using a variable slope by GraphPad Prism software (Table 2).

SARS-CoV2 (enzyme) = SARS-CoV2 (enzyme) (Severe acute respiratory syndrome coronavirus 2 (2019-nCoV) (SARS-CoV-2), UniProt P0DTD1); experiment: Inhibitory activity against SARS-CoV2 enzyme (Table 1); type: biochemical
FIPV = experiment: Inhibitory activity against FIPV in cell culture (Table 1); type: cell-based; settings: Alphacoronavirus 1, cell culture
[1] = Nonspecific cytotoxic effects (CytoTox 96 assay); type: cell-based; settings: African green monkey (Vero E6) and cat (CRFK); Vero E6 and CRFK cells, 72 hr
Description: as §1

SARS-CoV-2 [2] = experiment: Cell-based assay for antiviral activity in A549-ACE2 cells; settings: Severe acute respiratory syndrome coronavirus 2, mean ± standard deviation
SARS-CoV-2 [3] = experiment: Cell-based assay for antiviral activity, plaque reduction in Vero E6 cells; settings: mean ± standard deviation
SARS-CoV-2 [4] = settings: cited from earlier work
SARS-CoV-2 3CLpro = SARS-CoV-2 3CLpro (Severe acute respiratory syndrome coronavirus 2 (2019-nCoV) (SARS-CoV-2), UniProt P0DTD1); experiment: biochemical; type: biochemical
SARS-CoV-2 [5] = type: in vivo, K18-hACE2 mice; settings: for lung edema average score: score 0-4
[6] = Severe acute respiratory syndrome coronavirus 2, Vero C1008, read-out: EC50 (μM) VeroE6, VeroE6 cells
[7] = read-out: EC50 (μM) VeroE6, VeroE6 cells

## CC(C)C[C@H](NC(=O)OCc1ccccc1)C(=O)N[C@@H](C[C@@H]1CCNC1=O)C(O)S(=O)(=O)O (stereo partly drawn) [Compound 10, Sodium(2S)-1-hydroxy-2-((S)-4-methyl-2-((((phenyl-d5)methoxy-d2)carbonyl)amino)pentanamido)-3-((S)-2-oxopyrrolidin-3-yl)propane-1-sulfonate]
Vero E6 and CRFK cells; Vero E6 and CRFK cells, 72 hr
  CC50: > 100000 nM

## [2H]C([2H])(OC(=O)N[C@@H](CC(C)C)C(=O)N[C@@H](C[C@@H]1CCNC1=O)C(OC(=O)CCCCC)S(=O)(=O)[O-])c1ccccc1.[Na+] (stereo partly drawn) [Prodrug of GC1129-No2]
SARS-CoV2 (enzyme)
  EC50: 0.8 µM
FIPV
  EC50: 0.06 µM

## [2H]c1c([2H])c([2H])c(COC(=O)N[C@@H](CC(C)C)C(=O)N[C@@H](C[C@@H]2CCNC2=O)C(O)S(=O)(=O)[O-])c([2H])c1[2H].[Na+] (stereo partly drawn) [Compound 7, Sodium (2S)-1-hydroxy-2-((S)-4-methyl-2-((((phenyl-d5)methoxy)carbonyl)amino)pentanamido)-3-((S)-2-oxopyrrolidin-3-yl)propane-1-sulfonate]
[1]
  CC50 at 72 h: > 100000 nM
SARS-CoV-2 [2]
  EC50: 0.1 ± 0.01 µM
SARS-CoV-2 [3]; [6]
  EC50: 0.068 to 0.086 µM
SARS-CoV-2 [3]; [7]
  EC50: 0.079 ± 0.01 µM

## [2H]c1c([2H])c([2H])c(C([2H])([2H])OC(=O)N[C@@H](CC(C)C)C(=O)N[C@H](C=O)C[C@@H]2CCNC2=O)c([2H])c1[2H] [Deuterated GC373-No1]
FIPV
  EC50: 0.05 µM

## [2H]c1c([2H])c([2H])c(COC(=O)N[C@@H](CC(C)C)C(=O)N[C@H](C=O)C[C@@H]2CCNC2=O)c([2H])c1[2H] [Compound 6, (Phenyl-d5)methyl ((S)-4-methyl-1-oxo-1-(((S)-1-oxo-3-((S)-2-oxopyrrolidin-3-yl)propan-2-yl)amino)pentan-2-yl)carbamate]
[1]
  CC50 at 72 h: > 100000 nM
SARS-CoV-2 [2]
  EC50: 0.075 ± 0.01 µM
SARS-CoV-2 [3]; [6]
  EC50: 0.068 to 0.086 µM
SARS-CoV-2 [3]; [7]
  EC50: 0.077 ± 0.01 µM

## [2H]C([2H])(OC(=O)N[C@@H](CC(C)C)C(=O)N[C@@H](C[C@@H]1CCNC1=O)C(OC(C)=O)S(=O)(=O)[O-])c1ccccc1.[Na+] (stereo partly drawn) [Prodrug of GC1129-No1]
SARS-CoV2 (enzyme)
  EC50: 0.7 µM
FIPV
  EC50: 0.06 µM

## [2H]c1c([2H])c([2H])c(C([2H])([2H])OC(=O)N[C@@H](CC(C)C)C(=O)N[C@@H](C[C@@H]2CCNC2=O)C(O)S(=O)(=O)[O-])c([2H])c1[2H].[Na+] (stereo in doubt) [Deuterated GC376-No1]
FIPV
  EC50: 0.08 µM

## CC(C)C[C@H](NC(=O)OCc1ccccc1)C(=O)N[C@@H](C[C@@H]1CCNC1=O)C(O)S(=O)(=O)[O-].[Na+] (stereo partly drawn) [GC376, reference compound]
Vero E6 and CRFK cells; up to 100 μM
  cytotoxicity: did not show any cytotoxicity
SARS-CoV-2 [4]; given three hours after virus inoculation that led to 100% fatality, versus vehicle
  survival: no difference in survival
SARS-CoV-2 [4]; given three hours after virus inoculation, versus vehicle-treated controls
  viral load and inflammation in the lungs: reduced viral load and inflammation
FIPV
  EC50: 0.05 µM
SARS-CoV-2 [3]; [6]
  EC50: 0.23 ± 0.01 µM

## [2H]C([2H])(OC(=O)N[C@@H](CC(C)C)C(=O)N[C@H](C=O)C[C@@H]1CCNC1=O)c1ccccc1 [Compound 1, Phenylmethyl-d2 ((S)-4-methyl-1-oxo-1-(((S)-1-oxo-3-((S)-2-oxopyrrolidin-3-yl)propan-2-yl)amino)pentan-2-yl)carbamate]
[1]
  CC50 at 72 h: > 100000 nM
SARS-CoV-2 [2]
  EC50: 0.086 ± 0.01 µM
SARS-CoV-2 [3]; [6]
  EC50: 0.068 to 0.086 µM
SARS-CoV-2 [3]; [7]
  EC50: 0.068 ± 0.01 µM

## [2H]C([2H])(OC(=O)N[C@@H](CC(C)C)C(=O)N[C@H](C=O)C[C@@H]1CCNC1=O)c1ccccc1 [Deuterated GC373-No2]
FIPV
  EC50: 0.05 µM

## [2H]c1c([2H])c([2H])c(COC(=O)N[C@@H](CC(C)C)C(=O)N[C@@H](C[C@@H]2CCNC2=O)C(OC(=O)CCCCC)S(=O)(=O)[O-])c([2H])c1[2H].[Na+] (stereo partly drawn) [Compound 8, Sodium (5S,8S)-5-isobutyl-3,6,11-trioxo-8-(((S)-2-oxopyrrolidin-3-yl)methyl)-1-(phenyl-d5)-2,10-dioxa-4,7-diazahexadecane-9-sulfonate]
[1]
  CC50 at 72 h: > 100000 nM
SARS-CoV-2 3CLpro
  IC50: 680 ± 350 nM
  potency (IC50) in the enzyme assay compared to aldehyde and bisulfite counterparts: significantly increased IC50 values

## [2H]C([2H])(OC(=O)N[C@@H](CC(C)C)C(=O)N[C@@H](C[C@@H]1CCNC1=O)C(OC(C)=O)S(=O)(=O)[O-])c1ccccc1.[Na+] (stereo partly drawn) [Compound 3, Sodium (5S,8S)-5-isobutyl-3,6,11-trioxo-8-(((S)-2-oxopyrrolidin-3-yl)methyl)-1-phenyl-2,10-dioxa-4,7-diazadodecane-9-sulfonate-1,1-d2]
[1]
  CC50 at 72 h: > 100000 nM
SARS-CoV-2 3CLpro
  IC50: 710 ± 60 nM
  potency (IC50) in the enzyme assay compared to aldehyde and bisulfite counterparts: significantly increased IC50 values

## [2H]c1c([2H])c([2H])c(C([2H])([2H])OC(=O)N[C@@H](CC(C)C)C(=O)N[C@@H](C[C@@H]2CCNC2=O)C(OC(=O)CCCCC)S(=O)(=O)[O-])c([2H])c1[2H].[Na+] (stereo partly drawn) [Compound 11, Sodium (5S,8S)-5-isobutyl-3,6,11-trioxo-8-(((S)-2-oxopyrrolidin-3-yl)methyl)-1-(phenyl-d5)-2,10-dioxa-4,7-diazahexadecane-9-sulfonate-1,1-d2]
[1]
  CC50 at 72 h: > 100000 nM
SARS-CoV-2 3CLpro
  IC50: 770 ± 120 nM
  potency (IC50) in the enzyme assay compared to aldehyde and bisulfite counterparts: significantly increased IC50 values

## CC(C)C[C@H](NC(=O)OCc1ccccc1)C(=O)N[C@H](C=O)C[C@@H]1CCNC1=O [Parental aldehyde, reference compound]
FIPV
  EC50: 0.05 µM

## [2H]C([2H])(OC(=O)N[C@@H](CC(C)C)C(=O)N[C@@H](C[C@@H]1CCNC1=O)C(O)S(=O)(=O)[O-])c1ccccc1.[Na+] (stereo partly drawn) [Compound 2, Sodium (2S)-1-hydroxy-2-((S)-4-methyl-2-(((phenylmethoxy-d2)carbonyl)amino)pentan-amido)-3-((S)-2-oxopyrrolidin-3-yl)propane-1-sulfonate]
[1]
  CC50 at 72 h: > 100000 nM
SARS-CoV-2 [5]; 2 and 5 dpi, detection limit 200 PFU/g
  pathological changes and infectious virus in the brains: neither pathological changes nor infectious virus was detected
SARS-CoV-2 [5]; 2 dpi
  lung perivascular infiltrates: Mild perivascular infiltrates
  lung edema average score: 0
SARS-CoV-2 [5]; 2 dpi, second experiment
  lung virus titers versus vehicle: statistically significant reduction of virus titers
SARS-CoV-2 [5]; 5 dpi
  lung edema average score: 2
SARS-CoV-2 [5]; first experiment: 2×10^3 pfu per mouse, 100 mg/kg/day once a day from 1 dpi, 15 dpi
  survival: All compound 2-treated mice gradually gained body weight and were alive at the end of the study
SARS-CoV-2 [5]; first experiment: 2×10^3 pfu per mouse, 100 mg/kg/day, 5-10 dpi, versus vehicle
  body weight loss: loss was less severe compared to vehicle-treated mice
SARS-CoV-2 [5]; mouse, in vivo
  lung perivascular infiltrations average score: 2
SARS-CoV-2 [2]
  EC50: 0.069 ± 0.01 µM
SARS-CoV-2 [3]; [6]
  EC50: 0.068 to 0.086 µM
SARS-CoV-2 [3]; [7]
  EC50: 0.086 ± 0.02 µM

## [2H]c1c([2H])c([2H])c(C([2H])([2H])OC(=O)N[C@@H](CC(C)C)C(=O)N[C@H](C=O)C[C@@H]2CCNC2=O)c([2H])c1[2H] [Compound 9, (Phenyl-d5)methyl-d2 ((S)-4-methyl-1-oxo-1-(((S)-1-oxo-3-((S)-2-oxopyrrolidin-3-yl)propan-2-yl)amino)pentan-2-yl)carbamate]
[1]
  CC50 at 72 h: > 100000 nM

## [2H]C([2H])(OC(=O)N[C@@H](CC(C)C)C(=O)N[C@@H](C[C@@H]1CCNC1=O)C(OC(=O)CCCCC)S(=O)(=O)[O-])c1ccccc1.[Na+] (stereo partly drawn) [Compound 4, Sodium (5S,8S)-5-isobutyl-3,6,11-trioxo-8-(((S)-2-oxopyrrolidin-3-yl)methyl)-1-phenyl-2,10-dioxa-4,7-diazahexadecane-9-sulfonate-1,1-d2]
[1]
  CC50 at 72 h: > 100000 nM
SARS-CoV-2 3CLpro
  IC50: 800 ± 100 nM
  potency (IC50) in the enzyme assay compared to aldehyde and bisulfite counterparts: significantly increased IC50 values

## [2H]C([2H])(OC(=O)N[C@@H](CC(C)C)C(=O)N[C@@H](C[C@@H]1CCNC1=O)C(=O)C(=O)NCc1ccccc1)c1ccccc1 [Compound 5, Phenylmethyl-d2 ((S)-1-(((S)-4-(benzylamino)-3,4-dioxo-1-((S)-2-oxopyrrolidin-3-yl)butan-2-yl)amino)-4-methyl-1-oxopentan-2-yl)carbamate]
[1]
  CC50 at 72 h: > 100000 nM
SARS-CoV-2 3CLpro
  IC50: 1310 ± 550 nM
  potency (IC50) in the enzyme assay compared to aldehyde and bisulfite counterparts: markedly decreased potency
